The record followed here is patent publication US6716845B2, “Barbituric acid derivatives” (Hoffmann-La Roche Inc., priority 2001, dated 2004).

Molecules are shown by their SMILES.

Tested on in one data set: not given
Test: not given
Conditions: not given
On to `O=C(O)CCC(=O)N1CCN(C2(c3ccc(Oc4ccccc4)cc3)C(=O)NC(=O)NC2=O)CC1` [Example 3, 4-Oxo-4-4-[2,4,6-trioxo-5-(4-phenoxy-phenyl)-hexahydro-pyrimidin-5-yl]-piperazin-1-yl-butyric acid], for which the melting point lay within 270 to 275 °C.

Another data set deals with T1, MMP-8, catalytic domain (Homo sapiens, UniProt P22894).
T1 construct: Enzyme: 8 nM catalytic domain (Met80-Gly242) of human neutrophil collagenase (MMP-8); made in house
T1 sequence (P22894 100-262 limits assumed): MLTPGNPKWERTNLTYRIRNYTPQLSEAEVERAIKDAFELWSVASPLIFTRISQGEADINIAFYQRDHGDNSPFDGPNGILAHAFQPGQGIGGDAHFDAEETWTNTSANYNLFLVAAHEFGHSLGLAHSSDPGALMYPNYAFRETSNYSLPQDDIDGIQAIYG
Kind of data set: Inhibition of MMP-8 catalytic domain, fluorogenic DNP-heptapeptide substrate cleavage. Type of data set: biochemical.
Conditions: not given
The protocol: The results are evaluated by plotting the reciprocal reaction rate against the concentration of the inhibitor.
The synthetic collagenase substrate is a heptapeptide which is coupled, at the C terminus, with DNP (dinitrophenol). Said DNP residue quenches by steric hindrance the fluorescence of the adjacent tryptophane of the heptapeptide. After cleavage of a tripeptide which includes the DNP group, the tryptophane fluorescence increases. The proteolytic cleavage of the substrate therefore can be measured by the fluorescence value.
The assay was performed at 25° C. in a freshly prepared 50 mM Tris buffer (pH 8.0) treated with dithiozone to remove traces of heavy metals. 4 mM CaCl2 was added and the buffer saturated with argon. Stock solutions of adamalysin II were prepared by centrifugation of the protein from an ammonium sulfate suspension and subsequent dissolution in the assay buffer. Stock solutions of collagenase were diluted with the assay buffer. Enzyme concentrations were determined by uv measurements (ε280=2.8 10^4 M^−1 cm^−1, ε288: 2.2 10^4 M^−1·cm^−1) and the stock solutions were stored in the cold. […] Substrate fluorescence was measured at an excitation and emission wavelength of λ=320 and 420 nm, respectively, on a spectrofluorimeter (Perkin Elmer, Model 650-40) equipped with a thermostated cell holder. Substrate hydrolysis was monitored for 10 min. immediately after adding the enzyme. All reactions were performed at least in triplicate. The Ki values-of the inhibitors were calculated from the intersection point of the straight lines obtained by the plots of vo/vi vs. [concentration of inhibitor], whereas IC50 values were calculated from plots of vi/vo [concentration of inhibitor] by non-linear regression with simple robust weighting.
50 mM Tris/HCI pH 7.6 (Tris=Tris-(hydroxymethyl)-aminomethane)
100 mM NaCl/10 mM CaCl2/5% MeOH (if necessary)
Enzyme: 8 nM catalytic domain (Met80-Gly242) of human neutrophil collagenase (MMP-8)
Substrate: 10 microM DNP-Pro-Leu-Gly-Leu-Trp-Ala-D-Arg-NH2
A solution of the enzyme and inhibitor in assay buffer (25° C.) was prepared. The reaction was started by giving the substrate into the solution. The cleavage of the fluorogenic substrate was followed by fluorescence spectroscopy with an excitation and emission wavelength of 280 and 350 nm, respectively. The IC50 value was calculated as the inhibitor concentration, which is necessary to decrease the velocity of the reaction to the half in comparison to the reaction without inhibitor.
`O=C1NC(=O)C(NCCN2CCN(c3ncccn3)CC2)(c2ccc(Oc3ccc(Br)cc3)cc2)C(=O)N1` [Example 2 - no. 10, 5-[4-(4-Bromo-phenoxy)-phenyl]-5-[2-(4-pyrimidin-2-yl-piperazin-1-yl)-ethylamino]-pyrimidine-2,4,6-trione] came in with a 50% inhibitory concentration (IC50) of 9 nM.

The same data set, now with this note: catalytic domain of human neutrophil collagenase (MMP-8); substrate DNP-Pro-Leu-Gly-Leu-Trp-Ala-D-Arg-NH2; 25° C.; read-out: IC50 Values of MMP-Inhibitor (vs. MMP-8, catalytic domain).
With `O=C1NC(=O)C(c2ccc(Oc3ccc(Cl)cc3)cc2)(N2CCN(CC(O)CO)CC2)C(=O)N1` (stereo not shown) [Example 1, 5-[4-(4-Chloro-phenoxy)-phenyl]-5-[4-(2,3-dihydroxy-propyl)-piperazin-1-yl]-pyrimidine-2,4,6-trione], the IC50 came out at 11 nM.

With `O=C1NC(=O)C(c2ccc(Oc3ccc(Cl)cc3)cc2)(N2CCN(CCOCCO)CC2)C(=O)N1` [Example 2 - no. 1], the IC50 amounted to 16 nM.

In the case of `O=C1NC(=O)C(c2ccc(Oc3ccc(Cl)cc3)cc2)(N2CCN(CC3COC(=O)O3)CC2)C(=O)N1` (stereo not shown) [Example 2 - no. 2, 5-[4-(4-Chloro-phenoxy)-phenyl]-5-[4-(2-oxo-[1,3]dioxolan-4-ylmethyl)-piperazin-1-yl]-pyrimidine-2,4,6-trione], the IC50 is 9 nM.

For the molecule `CCOCC(O)CN1CCN(C2(c3ccc(Oc4ccc(Cl)cc4)cc3)C(=O)NC(=O)NC2=O)CC1` (stereo not shown) [Example 2 - no. 3, 5-[4-(4-Chloro-phenoxy)-phenyl]-5-[4-(3-ethoxy-2-hydroxy-propyl)-piperazin-1-yl]-pyrimidine-2,4,6-trione], the IC50 stood at 15 nM.

On to `O=C1NC(=O)C(c2ccc(Oc3ccc(Cl)c(Cl)c3)cc2)(N2CCN(CCOCCO)CC2)C(=O)N1` [Example 2 - no. 4, 5-[4-(3,4-Dichloro-phenoxy)-phenyl]-5-4-[2-(2-hydroxy-ethoxy)-ethyl]-piperazin-1-yl-pyrimidine-2,4,6-trione], for which the IC50 turned out to be 7 nM.

For the molecule `O=C1NC(=O)C(c2ccc(Sc3ccccc3)cc2)(N2CCN(CCOCCO)CC2)C(=O)N1` [Example 2 - no. 5, 5-4-[2-(2-Hydroxy-ethoxy)-ethyl]-piperazin-1-yl-5-(4-phenylsulfanyl-phenyl)-pyrimidine-2,4,6-trione], the IC50 was 19 nM.

As for `NS(=O)(=O)c1ccc(CN2CCN(C3(c4ccc(Oc5ccc(Br)cc5)cc4)C(=O)NC(=O)NC3=O)CC2)cc1` [Example 2 - no. 11, 4-(4-5-[4-(4-Bromo-phenoxy)-phenyl]-2,4,6-trioxo-hexahydro-pyrimidin-5-yl-piperazin-1-ylmethyl)-benzenesulfonamide], the IC50 is 11 nM.

Take `O=C(O)CCC(=O)N1CCN(C2(c3ccc(Oc4ccccc4)cc3)C(=O)NC(=O)NC2=O)CC1` [Example 3, 4-Oxo-4-4-[2,4,6-trioxo-5-(4-phenoxy-phenyl)-hexahydro-pyrimidin-5-yl]-piperazin-1-yl-butyric acid]: the IC50 is 11 nM.
